Experimental data: US8765809B2, “Ester derivative and use thereof” (Ajinomoto Co., Inc., priority 2006, dated 2014)

How the values were obtained:
[1] = Stability of compound: recovery rate (isolation yield) after contact with silica gel (PTLC); assay type: physicochemical; settings: for recovery at 30 min: PTLC, silica gel stirred with ethyl acetate 30 min, read-out: isolation yield (recovery rate) after PTLC, taken as stability upon contact with silica gel; for stability upon contact with silica gel: isolation and purification by PTLC
Method: As mentioned above, the reaction yields of the compounds of respective Examples were determined by applying the products obtained by a condensation reaction to PTLC and stirring the silica gel containing the object compound with ethyl acetate for 30 min, followed by filtration and concentration under reduced pressure. Since the condensation reaction proceeds at a conversion rate of not less than 90% for all compounds, the recovery rate (yield) of each compound is considered to reflect stability upon contact of the compound with the silica gel.
Using vanillyl alcohol (1.70 g, 11.0 mmol) instead of homovanillyl alcohol, and n-decanoic acid (1.72 g, 10 mmol) instead of 8-methylnonanoic acid in Example 1, similar reaction was performed. The residue was purified by PTLC to find that the yield of the obtained vanillyl decanoate was 1.33 g (4.31 mmol, 43.1%), and vanillyl decanoate was decomposed (i.e., unstabilized) by the contact with silica gel.

[2] = test system: auricle of hairless mouse; assay: Measurement of external blood circulation enhancing action: vasodilatory effect (red spots) after application to the ear; assay type: in vivo, hairless mouse (HR-1, female); set-up: key to Vasodilatory effect for hairless mouse (red spots) / Vasodilatory effect on hairless mouse (red spots): O: clear red spots is confirmed; Δ: weak red spots is confirmed; x: no development of red spots; settings: for Vasodilatory effect for hairless mouse (red spots): 5 wt % (liquid paraffin), first column of Table 2; for vasodilatory / blood circulation enhancing effect, summary in words: summary of Tables 2 to 4; for Vasodilatory effect on hairless mouse (red spots) / weak red spots were observed at, time after application: 5 wt % (ethanol)
Excerpt: The compound of each Example, capsinoid derivative and capsaicin were compared for vasodilatory effect using auricle of hairless mouse. A sample was applied to the right ear of hairless mouse (HR-1, female), and a control was applied to the left ear. […]

[3] = Solubility of sample in liquid paraffin (note to Table 2); assay type: physicochemical; settings: 5 wt % in liquid paraffin
[4] = application of 5 wt % in liquid paraffin

Structure (SMILES) | recovery at 30 min [1] [%] | stability upon contact with silica gel [1] | Vasodilatory effect for hairless mouse (red spots) [2] | blood circulation enhancing effect (note, words) [2, 4] | red spots disappeared in [2, 4] | vasodilatory / blood circulation enhancing effect, summary in words [2] | Vasodilatory effect on hairless mouse (red spots) [2] | weak red spots were observed at, time after application [2] | solubility (note, words) [3]
COc1cc(CCOC(=O)CCCCCCC(C)C)ccc1O [compound I, homovanillyl 8-methylnonanoate] | 93.2 | far stabler than vanillyl decanoate | Δ | effect was weak and | disappeared in 1 hr | weak blood circulation enhancing effect |  |  | 
COc1cc(CCOC(=O)CCCCCC(C)C)ccc1O [compound I-1, homovanillyl 7-methyloctanoate] |  |  | x |  |  | weak blood circulation enhancing effect | Δ | Weak red spots were observed at 20 min | sparingly soluble, thus red
COc1cc(CCOC(=O)CCCCC(C)C)ccc1O [compound I-2, homovanillyl 6-methylheptanoate] |  |  | x |  |  | weak blood circulation enhancing effect | Δ | Weak red spots were observed at 20 min | sparingly soluble, thus red
COc1cc(CCOC(=O)CCCC(C)C)ccc1O [compound I-3, homovanillyl 5-methylhexanoate] |  |  | x |  |  | weak blood circulation enhancing effect | Δ | Weak red spots were observed at 20 min | sparingly soluble, thus red
COc1cc(CO)ccc1O [vanillyl alcohol, reference compound] |  |  | x | Application of 5 wt %: no blood |  |  | x |  | 
CCCCCCCCCC(=O)OCc1ccc(O)c(OC)c1 [vanillyl decanoate, reference compound] | 43.1 | decomposed |  |  |  |  |  |  | 
